# Measurements taken from a melting point compilation (Tetko et al.; mined from patent text by program, amines drawn as free bases though some values may be those of a salt).
row,SMILES,melting point
1,O=C(C=Cc1cccc(Cl)c1Cl)c1ccc(OC2CCCCO2)cc1 (stereo not drawn),116 to 118 °C
2,CNC(=NC#N)NCCSc1nccc(NC(N)=NCC(F)(F)F)n1,218 to 221 °C
3,O=C1NCC(c2cccc(C(F)(F)F)c2)C1c1cn2c3c(cccc13)CCC2 (stereo not drawn),82 to 85 °C
4,Clc1cccc(-c2nc(-c3ccccn3)no2)c1Cl,128 to 133 °C
5,CCCc1nc(OC)c(NC(=S)N2CCN(c3cccc(O)c3)CC2)cc1C,160 to 162 °C
6,O=C1NC(Cc2ccc(OCc3ccccc3)cn2)C(=O)NC1Cc1ccc(Cl)cc1 (stereo not drawn),227 to 229 °C
7,COC(=O)c1cc(C(=O)OC)n(-c2ccc(Cl)cc2C(=O)c2ccccc2)n1,118 to 120 °C
8,CCCc1c(OCCCCCOc2ccc3c(=O)cc(C(=O)OC)oc3c2CCC)ccc(C(C)=O)c1O,86 to 87 °C
9,"CCCCCCC1C(=O)OC2OC3(C)CCC4C(C)CCC1C24OO3 (single isomer, unassigned; (+))",80.5 to 82 °C
10,CCOC(=O)C(Oc1ccc(Cl)cc1)C(C)C (stereo not drawn),88 to 91 °C
11,OC1CC2(CCNC2)c2ccc(Cl)c(Cl)c21 (stereo not drawn),167 to 170 °C
12,Cn1cc(-c2cccc(N3Cc4cc(C(C)(C)C)ccc4C3=O)c2CO)cc(Nc2cc(C3CC3)n[nH]2)c1=O,178 to 180 °C
13,CC1(C)NC(C)(C)c2ccccc21,36 to 38 °C
14,COC(=O)CN(NC(N)=O)c1cccc(C)c1,68 to 70 °C
15,CCC(CC)Nc1nc(C)nc(Oc2c(C)cc(C)cc2C)c1N,248 to 250 °C
16,CCOC(=O)/C=C/c1ccc2c(=O)n(CC(C)C)c(CNC(=O)OC(C)(C)C)c(-c3ccccc3)c2c1,147 to 148 °C
17,NC(=O)c1cc2c(SC3CCCCC3)cncc2s1,205 to 207 °C
18,CON(C)C(=O)c1c(COC2CCCCO2)noc1-c1ccccc1Cl (stereo not drawn),51 to 56 °C
19,CC1(C)CCC(C)(C)c2nc(C(=O)CBr)cnc21,> 300 °C
20,O=C(C=Cc1cc(O)c(O)c(C(F)(F)F)c1)c1ccccc1,196 to 201 °C
21,Cc1cc(C)c(-n2ccc3c(N)nn(C)c(=O)c32)c(C)c1,254 to 256 °C
22,CC(C)Cc1ccc(-c2ccccc2C(C)C(=O)O)cc1 (stereo not drawn),76 to 77 °C
23,Cc1c(SCc2cccs2)ccnc1CSc1nc2ccccc2[nH]1,131 to 133 °C

row,SMILES,melting point
1,CS(=O)(=O)O[C@H](COC(=O)CCl)[C@H](NC(=O)OCc1ccccc1)C(N)=O,140 to 142 °C
2,CCOC(=O)C1(O)C=CN=c2ccc3c(c21)NCN=3 (stereo not drawn),315 to 316 °C
3,CCC(=O)N1N=C(c2ccc([N+](=O)[O-])cc2)c2cc(Cl)ccc2CC1C (stereo not drawn),160 to 161 °C
4,CCN(C(=O)C(C)(C)C)c1cccc(-c2ccc3nnc(C)n3n2)c1,168 to 170 °C
5,COC(=O)CNC(=O)Nc1cc(F)ccc1[N+](=O)[O-],133 to 135 °C
6,CC1(C)NC(=O)N(Cc2ccccc2)C1=O,101 to 104 °C
7,COc1cccc(CSCCNC(=O)c2c(Cl)cccc2Cl)c1OC,108 to 110 °C
8,Clc1ccc(-c2nc(COc3ccc(CCCn4ccnc4)cc3)co2)o1,88 to 89 °C
9,O=C1CCCSC1C(=O)c1ccc([N+](=O)[O-])cc1Cl (stereo not drawn),59.5 to 62.5 °C
10,COc1ccccc1N1CCN(CCCCOc2ccc(-c3cn4ccccc4n3)cc2)CC1,144 to 145 °C
11,O=C1Nc2ccc(Cl)cc2C1(O)c1ccccc1OCc1ccccc1 (stereo not drawn),197 °C
12,CC(C)NC(=O)N1CCc2[nH]cnc2C1,190 °C
13,Cc1cc(CCCCCOc2cc(Cl)c(-c3nnc(C)o3)c(Cl)c2)on1,71 to 72 °C
14,O=C1CCC(c2ccccc2)(c2ccccc2)[C@@H]2CN(Cc3ccccc3)C[C@H]12 (racemic),132 °C
15,CCOC(=O)c1cn(C2CC2)c2cc(Br)c(F)c(C)c2c1=O,195 to 197 °C
16,C=C(c1ccc(-c2ncnn2COCC)cc1)C(O)(Cn1cncn1)c1ccc(F)cc1F (stereo not drawn),160 to 162 °C
17,CCOC(=O)COc1ccc(C2OCCCO2)cc1NC(=O)c1ccc(OCCCCc2ccccc2)cc1,73 °C
18,Cc1ccc(S(=O)(=O)NOC(C)C)cc1,104 °C
19,O=Cc1ccc(-c2cnn(-c3ccc(OC(F)(F)F)cc3)c2)cc1,107 to 109 °C
20,O=C(Nc1ccc(F)cc1F)NC1(c2cccs2)CCCCC1,175 to 177 °C
21,CC(=O)NCc1ccc(Nc2nccc(-c3sc(-c4cccnc4)nc3C)n2)cc1,199 to 201 °C
22,O=C(Nc1ccc(C(F)(F)F)cc1Cl)[C@H]1[C@H](c2ccccc2)C12CCCC2 (relative stereo),131 to 133 °C
23,O=C(NCCCc1ccncc1)N(CCC12CC3CC(CC(C3)C1)C2)C1CC1,108 to 116 °C

row,SMILES,melting point
1,CCCCN(C(=O)c1cc(C(C)(C)C)c(OC(=O)c2cc(C(C)(C)C)c(O)c(C(C)(C)C)c2)c(C(C)(C)C)c1)C1CC(C)(C)N(OC(C)=O)C(C)(C)C1,230 to 232 °C
2,CC(=O)c1nc2cc(Cl)c(OCC(F)(F)F)cc2cc1O,104 to 105 °C
3,COc1ccc(CC(=O)NC(NC(=NC#N)Nc2ccccc2Cl)C(C)(C)C)cc1OC (stereo not drawn),135 to 136 °C
4,CC(=O)CCc1nsc2ccc(-n3c(=O)cc(C(F)(F)F)n(C)c3=O)cc12,198 to 199 °C
5,CC(=C1SC(=O)NC1=O)c1ccc(OCCOc2c(-c3ccc(F)cc3)n(C)c3ccccc3c2=O)cc1,228 to 230 °C
6,O=C(O)c1ccc2c(c1)C(c1ccccc1Cl)=NC=C1N=NC(C3CC3)N12 (stereo not drawn),170 to 175 °C
7,CCCC(NS(=O)(=O)c1ccc(Cl)cc1)C(=S)Nc1ccc(CC(=O)O)cc1 (racemic),170 to 177 °C
8,CCCC(=O)NC(C)c1nnc(C)[nH]c1=O (stereo not drawn),235 to 237 °C
9,COC(=O)c1ccc(Cn2nc(O)c3ccc(NC(=O)CC4CCCC4)cc32)c(OC)c1,242 to 245 °C
10,CC(C)(C)OC(=O)Nc1ccc(C#Cc2nccs2)cc1N,182 °C
11,CCc1nc(C(=O)O)c(C(=O)O)[nH]1,265 to 268 °C
12,OCc1nc(-c2ccc(Cl)cc2)co1,68 to 71.5 °C
13,COC(=O)C[C@H]1C(=O)OCN1C(=O)OCc1ccccc1,90 to 93 °C
14,CN1Cc2c(C#CC(C)(C)O)ncn2-c2ccc(F)cc2C1=O,163 to 164 °C
15,CN(C)CNS(=O)(=O)c1ccc(-c2cnn(Cc3c(F)c(F)c(F)c(F)c3F)c(=O)c2-c2ccc(F)cc2)cc1,194 to 196 °C
16,CCOC(=O)c1c(CCl)nc2sc(C)c(C)c2c1-c1ccc(OC)c(OC)c1,162 to 163 °C
17,O=C(O)C[C@H](NC(=O)Nc1ccc([N+](=O)[O-])cc1)C(=O)O,118 to 120 °C
18,CC(C)OC(=O)c1cc(-n2c(=O)[nH]c3c(c2=O)CCC3)c(F)cc1Cl,204 to 207 °C
19,CCCOc1cc(O)nc(N(C)C)n1,194 to 195 °C
20,CCOC(=O)N[C@@H]1[C@H](O)C(=O)N2[C@H](c3ccccc3)OC[C@@H]12,176 to 178 °C
21,CCCc1c(OCCCCC#N)ccc(C(=O)c2ccccc2OC)c1O,85 to 86.5 °C
22,Nc1ncnc2c1nc(Sc1cc3c(cc1Br)OCO3)n2CCCCCC(=O)NO,160 to 169 °C

# Second part, the compound after the results:
row,melting point,SMILES
1,230 to 240 °C,CC(C)C1C(=O)N(CC(=O)O)C(c2ccccc2)=CN1C(=O)c1cccnc1 (racemic)
2,58 °C,COc1cc(CCN2CCN(c3nsc4ccccc34)CC2)c(NC(=O)C=C(C)C)cc1OC
3,198 to 201 °C,COc1cccc(NC(=O)Nc2ccc(N3CCN(C(=O)Nc4ccc(OCCO)cc4Cl)CC3)cc2)c1
4,139 to 140 °C,O=c1[nH]c(=O)n(Cc2cccc(OCc3csc(-c4ccccc4)n3)c2)o1
5,251 to 253 °C,COc1cccc2cc(C(=O)O)oc(=O)c12
6,80 to 85 °C,Cn1c(CC#N)ccc1C(=O)c1ccccc1Cl
7,129 °C,CC(C)(C)C(O)C1C(C(=O)O)C1(C)C (stereo not drawn)
8,100 to 103 °C,ON=C1C[C@H]2CC=CC[C@H]2C1
9,108 to 111 °C,O=C1c2ccccc2S(=O)CC1(CO)CO (stereo not drawn)
10,184 to 185 °C,Nc1nc(/C(=N/OC2(C(=O)OCc3ccc([N+](=O)[O-])cc3)CCCCC2)C(=O)O)cs1
11,106 to 109 °C,CC(=O)c1ccc(-c2ccccc2[N+](=O)[O-])cc1
12,172 to 173 °C,Cc1c2ccccc2c(-c2ccc(OS(C)(=O)=O)cc2)c2c1sc1ccccc12
13,139 to 140 °C,CC1(C)CC(=NO)CC(=NO)C1C#N (stereo not drawn)
14,193 to 194 °C,CCOC(=O)c1sc(SC)c2c1CCc1cn(C)nc1-2
15,66 to 67 °C,CCCCc1nnc(SCc2ccc(Cl)cc2)n1Cc1ccc(OC(C(=O)O)c2ccccc2)cc1 (stereo not drawn)
16,213 to 214 °C,CC(=O)NCC1CN(c2ccc(N3CCN(c4nc5ccc(F)c(F)c5o4)CC3)c(F)c2)C(=O)O1 (stereo not drawn)
17,201 to 202 °C,Cc1ccc(-c2c(C#N)n(C)c(=O)c3cnccc23)cc1
18,159 °C,Cc1c(NC(=O)c2ccc(OC[C@@H]3CCCO3)cc2)ccc2cc(CNCC(C)C)[nH]c12
19,176 °C,O=C1c2ccccc2CN1c1ccc(CCN2CCN(c3nsc4ccccc34)CC2)cc1
20,132 to 134 °C,Cc1[nH]c2ccccc2c1CCCN1CCC(O)(Cc2ccccc2)CC1
21,168 to 170 °C,O=C(O)COc1cccc2c1CCc1sc(S(=O)(=O)CC(c3ccccc3)c3ccccc3)nc1-2
22,135 to 136 °C,C=CCc1c(C(=O)OC)[nH]c2c(C)ccc(C)c12
23,224 to 225 °C,COc1ccc(-c2cc(-c3nccs3)c(=O)n(C)c2-c2ccncc2)cc1
24,54 to 57 °C,Cc1oc(=O)oc1CSc1ccc(Cl)cc1
25,139 to 140 °C,CCc1nc(/C=C/c2cn(-c3ccccc3)nc2OCc2ccc(OCc3nc(-c4cccc(-c5noc(=O)[nH]5)c4)oc3C)c(OC)c2)cs1
26,204 to 205 °C,CONC(=O)Nc1ccc(-c2sc3c(c2CN(C)Cc2ccccc2)c(=O)n(-c2ccccc2)c(=O)n3Cc2c(F)cccc2F)cc1
27,128 °C,CCCCc1nc(SCC)c(CO)[nH]1
28,48 to 55 °C,c1nc(SCC2CCCC2)n[nH]1
29,206 to 207 °C,C[C@]12CCC(=O)N[C@@H]1CCc1cc(-c3nccs3)ccc12
30,160 to 162 °C,N#CC(C#N)=C(O)c1ccc(Oc2ccccc2)cc1
